Data from PMC8942544, “Design and synthesis of benzodiazepines as brain penetrating PARP-1 inhibitors” (Journal of Enzyme Inhibition and Medicinal Chemistry, 2022).

Target: T1, PARP-1 (Homo sapiens, UniProt P09874)
T1 construct: purchased BPS Bioscience 80580
Assay: PARP-1 enzyme inhibition assay (BPS Bioscience PARP Colorimetric Assay Kit)
Format: biochemical
Conditions: compound concentration 50 nM; three independent tests
Procedure: All target compounds were evaluated for PARP-1 enzyme inhibition activity at the concentration of 50 nM determined by previous pre-experiments.
The ability of the compounds to inhibit PARP-1 enzyme activity was assessed using BPS Bioscience's PARP Colorimetric Assay Kit (BPS Bioscience, Catalog # 80580). PARP-1 is known to catalyse the NAD-dependent addition of poly(ADP-ribose) to histones. The PARP-1 assay kit comes in a convenient 96-well format, with purified PARP-1 enzyme, histone mixture, activated DNA, and PARP-1 assay buffer. The key to the PARP-1 Colorimetric Activity Assay is the biotinylated substrate. With this kit, only three simple steps are required for PARP-1 reactions. First, histone proteins are coated on a 96-well plate. Next, the PARP-1 biotinylated substrate is incubated with an assay buffer that contains the PARP-1 enzyme. Finally, the plate is treated with streptavidin-HRP followed by the addition of the colorimetric HRP substrate to produce colour that can then be measured using a UV/Vis spectrophotometer microplate reader. IC50 values were calculated using GraphPad Prism5 software.

T1 sequence (P09874 whole entry): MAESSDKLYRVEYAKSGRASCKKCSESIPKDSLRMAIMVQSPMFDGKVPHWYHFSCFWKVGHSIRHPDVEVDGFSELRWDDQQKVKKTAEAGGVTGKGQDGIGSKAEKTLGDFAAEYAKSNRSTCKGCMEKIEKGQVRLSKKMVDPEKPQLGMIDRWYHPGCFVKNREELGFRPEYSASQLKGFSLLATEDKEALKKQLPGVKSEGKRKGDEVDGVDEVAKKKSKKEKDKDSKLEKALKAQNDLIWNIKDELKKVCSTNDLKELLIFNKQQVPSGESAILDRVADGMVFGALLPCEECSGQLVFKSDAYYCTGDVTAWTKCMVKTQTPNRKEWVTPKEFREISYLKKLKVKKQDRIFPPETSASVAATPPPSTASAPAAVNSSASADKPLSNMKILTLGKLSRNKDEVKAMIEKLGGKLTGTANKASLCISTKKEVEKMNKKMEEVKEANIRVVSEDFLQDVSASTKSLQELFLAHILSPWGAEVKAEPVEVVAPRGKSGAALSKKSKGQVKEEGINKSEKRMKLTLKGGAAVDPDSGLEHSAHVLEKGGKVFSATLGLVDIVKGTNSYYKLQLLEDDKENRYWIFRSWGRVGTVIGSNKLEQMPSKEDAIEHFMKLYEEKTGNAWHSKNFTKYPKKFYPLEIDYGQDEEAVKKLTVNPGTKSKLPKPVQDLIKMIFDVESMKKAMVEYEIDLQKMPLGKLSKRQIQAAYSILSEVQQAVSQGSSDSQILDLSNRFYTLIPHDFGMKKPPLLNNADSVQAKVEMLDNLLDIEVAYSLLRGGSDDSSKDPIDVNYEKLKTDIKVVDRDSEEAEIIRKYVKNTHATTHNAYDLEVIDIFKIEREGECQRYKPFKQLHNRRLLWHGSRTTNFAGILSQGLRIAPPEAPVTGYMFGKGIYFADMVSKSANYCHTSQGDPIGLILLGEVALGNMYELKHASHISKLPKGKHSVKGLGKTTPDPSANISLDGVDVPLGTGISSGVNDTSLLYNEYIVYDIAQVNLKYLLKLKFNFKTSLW

| SMILES | inhibition at 0.05 µM |
| --- | --- |
| O=C1NCC(c2ccc(F)cc2F)=Nc2ccccc21 [Compound H14, 2-(2,4-Difluorophenyl)-3,4-dihydro-5H-benzo[e][1,4]diazepin-5-one] | 36.1 ± 3.6% |
| COc1cccc(-c2ccc(C3=Nc4ccccc4C(=O)NC3)cc2)c1 [Compound H41, 2-(3′-Methoxy-[1,1′-biphenyl]-4-yl)-3,4-dihydro-5H-benzo[e][1,4]diazepin-5-one] | 28.3 ± 8.8% |
| Nc1ncc(-c2ccc(C3=Nc4ccccc4C(=O)NC3)cc2)cn1 [Compound H39, 2-(4-(2-Aminopyrimidin-5-yl)phenyl)-3,4-dihydro-5H-benzo[e][1,4]diazepin-5-one] | 33.9 ± 5.3% |
| O=C1NCC(c2cc(F)cc(F)c2)=Nc2ccccc21 [Compound H15, 2-(3,5-Difluorophenyl)-3,4-dihydro-5H-benzo[e][1,4]diazepin-5-one] | 36.9 ± 1.4% |
| CN1CC(c2ccc(Br)cc2)N(C)c2ccccc2C1=O (stereo not shown) [Compound H29, 2-(4-Bromophenyl)-1,4-dimethyl-1,2,3,4-tetrahydro-5H-benzo[e][1,4]diazepin-5-one] | 22.1 ± 3.2% |
| O=C1NCC(c2ccc(-c3ccc4[nH]c5ccccc5c4c3)cc2)=Nc2ccccc21 [Compound H46, 2-(4-(9H-carbazol-3-yl)phenyl)-3,4-dihydro-5H-benzo[e][1,4]diazepin-5-one] | 14.9 ± 8.2% |
| O=C1NCC(c2ccc(F)cc2)Nc2ccccc21 (stereo not shown) [Compound H22, 2-(4-Fluorophenyl)-1,2,3,4-tetrahydro-5H-benzo[e][1,4]diazepin-5-one] | 33 ± 3% |
| O=C1NCC(c2ccc(F)cc2F)Nc2ccccc21 (stereo not shown) [Compound H24, 2-(2,4-Difluorophenyl)-1,2,3,4-tetrahydro-5H-benzo[e][1,4]diazepin-5-one] | 34.8 ± 2.1% |
| COc1ncc(-c2ccc(C3=Nc4ccccc4C(=O)NC3)cc2)cc1N [Compound H40, 2-(4-(5-Amino-6-methoxypyridin-3-yl)phenyl)-3,4-dihydro-5H-benzo[e][1,4]diazepin-5-one] | 35.4 ± 2.4% |
| O=C1NCC(c2ccc3ccccc3c2)=Nc2ccccc21 [Compound H18, 2-(Naphthalen-2-yl)-3,4-dihydro-5H-benzo[e][1,4]diazepin-5-one] | 35.9 ± 2.2% |
| COc1cccc(-c2ccc(C3CNC(=O)c4ccccc4N3)cc2)c1 (stereo not shown) [Compound H49, 2-(3′-Methoxy-[1,1′-biphenyl]-4-yl)-1,2,3,4-tetrahydro-5H-benzo[e][1,4]diazepin-5-one] | 38.5 ± 4.5% |
| O=C1NCC(c2ccc(-c3cccc(C(F)(F)F)c3)cc2)Nc2ccccc21 (stereo not shown) [Compound H51, 2-(3′-(Trifluoromethyl)-[1,1′-biphenyl]-4-yl)-1,2,3,4-tetrahydro-5H-benzo[e][1,4]diazepin-5-one] | 48.8 ± 3.7% |
| COc1ccc(C2CNC(=O)c3ccccc3N2)cc1 (stereo not shown) [Compound H20, 2-(4-Methoxyphenyl)-1,2,3,4-tetrahydro-5H-benzo[e][1,4]diazepin-5-one] | 27.9 ± 1.8% |
| CC1NC(=O)c2ccccc2NC1c1ccc(Br)cc1 (stereo not shown) [Compound H31, 2-(4-Bromophenyl)-3-methyl-1,2,3,4-tetrahydro-5H-benzo[e][1,4]diazepin-5-one] | 28.5 ± 3.4% |
| O=C1NCCCc2ccccc21 [Compound H2] | 5.2 ± 3.1% |
| O=C1NCC(c2ccc(-c3ccc(C(F)(F)F)cc3)cc2)=Nc2ccccc21 [Compound H44, 2-(4′-(Trifluoromethyl)-[1,1′-biphenyl]-4-yl)-3,4-dihydro-5H-benzo[e][1,4]diazepin-5-one] | 45.1 ± 5.2% |
| O=C1NCC(c2cc(F)cc(F)c2)Nc2ccccc21 (stereo not shown) [Compound H25, 2-(3,5-Difluorophenyl)-1,2,3,4-tetrahydro-5H-benzo[e][1,4]diazepin-5-one] | 39.2 ± 4.5% |
| O=C1CCNc2ccccc2N1 [Compound H3] | 3.6 ± 2.5% |
| O=C1NCC(c2ccc(Cl)c(Cl)c2)=Nc2ccccc21 [Compound H17, 2-(3,4-Dichlorophenyl)-3,4-dihydro-5H-benzo[e][1,4]diazepin-5-one] | 34.4 ± 3.6% |
| CN1CC=C(c2ccc(C3=Nc4ccccc4C(=O)NC3)cc2)CC1 [Compound H45, 2-(4-(1-Methyl-1,2,3,6-tetrahydropyridin-4-yl)phenyl)-3,4-dihydro-5H-benzo[e][1,4]diazepin-5-one] | 42.5 ± 6% |
| O=C1NCC(c2ccc(-c3cccc(C(F)(F)F)c3)cc2)=Nc2ccccc21 [Compound H43, 2-(3′-(Trifluoromethyl)-[1,1′-biphenyl]-4-yl)-3,4-dihydro-5H-benzo[e][1,4]diazepin-5-one] | 41.4 ± 3.5% |
| CC(=O)N1CCN(c2ccc(C3CNC(=O)c4ccccc4N3)cc2)CC1 (stereo not shown) [Compound H54, 2-(4-(4-Acetylpiperazin-1-yl)phenyl)-1,2,3,4-tetrahydro-5H-benzo[e][1,4]diazepin-5-one] | 34.6 ± 6.8% |
| Nc1ccc(-c2ccc(C3=Nc4ccccc4C(=O)NC3)cc2)cc1 [Compound H37, 2-(4′-Amino-[1,1′-biphenyl]-4-yl)-3,4-dihydro-5H-benzo[e][1,4]diazepin-5-one] | 46.1 ± 3.9% |
| Nc1ccc(-c2ccc(C3=Nc4ccccc4C(=O)NC3)cc2)cn1 [Compound H38, 2-(4-(6-Aminopyridin-3-yl)phenyl)-3,4-dihydro-5H-benzo[e][1,4]diazepin-5-one] | 34.7 ± 4.2% |
| O=C1NCC(c2ccc(Br)cc2)Nc2ccccc21 (stereo not shown) [Compound H27, 2-(4-Bromophenyl)-1,2,3,4-tetrahydro-5H-benzo[e][1,4]diazepin-5-one] | 43.2 ± 2.5% |
| C[C@@H]1CN(c2ccc(C3CNC(=O)c4ccccc4N3)cc2)C[C@H](C)O1 (stereo partly drawn) [Compound H55, 2-(4-((2S,6R)-2,6-dimethylmorpholino)phenyl)-1,2,3,4-tetrahydro-5H-benzo[e][1,4]diazepin-5-one] | 39.3 ± 5.2% |
| Nc1cccc(-c2ccc(C3CNC(=O)c4ccccc4N3)cc2)c1 (stereo not shown) [Compound H47, 2-(3′-Amino-[1,1′-biphenyl]-4-yl)-1,2,3,4-tetrahydro-5H-benzo[e][1,4]diazepin-5-one] | 48.7 ± 5.7% |
| Nc1cccc(-c2ccc(C3=Nc4ccccc4C(=O)NC3)cc2)c1 [Compound H36, 2-(3'-Amino-[1,1'-biphenyl]-4-yl)-3,4-dihydro-5H-benzo[e][1,4]diazepin-5-one] | 40.8 ± 4.7% |
| CC1NC(=O)c2ccccc2N=C1c1ccc(Br)cc1 (stereo not shown) [Compound H30, 2-(4-Bromophenyl)-3-methyl-3,4-dihydro-5H-benzo[e][1,4]diazepin-5-one] | 39.8 ± 4.2% |
| COc1cccc(C2CNC(=O)c3ccccc3N2)c1 (stereo not shown) [Compound H21, 2-(3-Methoxyphenyl)-1,2,3,4-tetrahydro-5H-benzo[e][1,4]diazepin-5-one] | 27.3 ± 2.3% |

The next lines start with the values.

| inhibition at 0.05 µM | SMILES |
| --- | --- |
| 28.7 ± 2.6% | O=C1NCC(c2cccc(Cl)c2)=Nc2ccccc21 [Compound H11, 2-(3-Chlorophenyl)-3,4-dihydro-5H-benzo[e][1,4]diazepin-5-one] |
| 15.7 ± 4.1% | N#Cc1ccc(C2=Nc3ccccc3C(=O)NC2)cc1 [Compound H12, 4-(5-Oxo-4,5-dihydro-3H-benzo[e][1,4]diazepin-2-yl)benzonitrile] |
| 48.6 ± 1.2% | O=C1NCC(c2ccc(-c3cn[nH]c3)cc2)=Nc2ccccc21 [Compound H32, 2-(4-(1H-pyrazol-4-yl)phenyl)-3,4-dihydro-5H-benzo[e][1,4]diazepin-5-one] |
| 36.6 ± 3% | O=C1NCC(c2cccc(F)c2)=Nc2ccccc21 [Compound H9, 2-(3-Fluorophenyl)-3,4-dihydro-5H-benzo[e][1,4]diazepin-5-one] |
| 28.8 ± 3.4% | O=C1NCC(c2ccccc2)=Nc2ccccc21 [Compound H4, 2-Phenyl-3,4-dihydro-5H-benzo[e][1,4]diazepin-5-one] |
| 37.1 ± 2.7% | Cc1ccc(C2=Nc3ccccc3C(=O)NC2)cc1 [Compound H5, 2-(p-Tolyl)-3,4-dihydro-5H-benzo[e][1,4]diazepin-5-one] |
| 31.9 ± 1.2% | COc1ccc(C2=Nc3ccccc3C(=O)NC2)cc1 [Compound H6, 2-(4-Methoxyphenyl)-3,4-dihydro-5H-benzo[e][1,4]diazepin-5-one] |
| 37.9 ± 2.3% | O=C1NCC(c2ccc(O)cc2)=Nc2ccccc21 [Compound H13, 2-(4-Hydroxyphenyl)-3,4-dihydro-5H-benzo[e][1,4]diazepin-5-one] |
| 38.4 ± 1.9% | O=C1NCC(c2ccc(Br)cc2)=Nc2ccccc21 [Compound H19, 2-(4-Bromophenyl)-3,4-dihydro-5H-benzo[e][1,4]diazepin-5-one] |
| 46.5 ± 3.2% | Cn1cc(-c2ccc(C3=Nc4ccccc4C(=O)NC3)cc2)cn1 [Compound H33, 2-(4-(1-Methyl-1H-pyrazol-4-yl)phenyl)-3,4-dihydro-5H-benzo[e][1,4]diazepin-5-one] |
| 34.7 ± 2.9% | COc1cccc(C2=Nc3ccccc3C(=O)NC2)c1 [Compound H7, 2-(3-Methoxyphenyl)-3,4-dihydro-5H-benzo[e][1,4]diazepin-5-one] |
| 33 ± 2.4% | O=C1NCC(c2ccc(Cl)cc2)=Nc2ccccc21 [Compound H10, 2-(4-Chlorophenyl)-3,4-dihydro-5H-benzo[e][1,4]diazepin-5-one] |
| 44.3 ± 6.2% | Cn1nccc1-c1ccc(C2=Nc3ccccc3C(=O)NC2)cc1 [Compound H35, 2-(4-(1-Methyl-1H-pyrazol-5-yl)phenyl)-3,4-dihydro-5H-benzo[e][1,4]diazepin-5-one] |
